Experiments:
[1] = biological target: T1, HDAC1 enzyme (recombinant GST-HDAC1) (Homo sapiens, UniProt Q13547); assay: In vitro HDAC assay for determination of IC50 values (BIOMOL fluorescent-based), HDAC1; type: biochemical; conditions: 600 nM HDAC1 enzyme, 500 μM Flur de lys generic substrate, 2 h room temperature
T1 construct: Amplification of human HDAC1 and HDAC8 coding region from this cDNA library; made in house; host or cells: SF9 insect cells (baculovirus, pDEST20 vector)
Protocol: (§1) Human cDNA library was prepared using cultured SW620 cells. Amplification of human HDAC1 and HDAC8 coding region from this cDNA library was cloned separately into the baculovirus expression pDEST20 vector and pFASTBAC vector respectively (GATEWAY Cloning Technology, Invitrogen Pte Ltd). The pDEST20-HDAC1 and pFASTBAC-HTGST-HDAC8 constructs were confirmed by DNA sequencing. Recombinant baculovirus was prepared using the Bac-To-Bac method following the manufacturer's instruction (Invitrogen Pte Ltd). Baculovirus titer was determined by plaque assay to be about 10^8 PFU/ml.
(§2) Expression of GST-HDAC1 or HTGST-HDAC8 was done by infecting SF9 cells (Invitrogen Pte Ltd) with pDEST20-HDAC1 or pFASTBAC-GST-HDAC8 baculovirus at MOI=1 for 48 h. Soluble cell lysate was incubated with pre-equilibrated Glutathione Sepharose 4B beads (Amersham) at 4° C. for 2 h. The beads were washed with PBS buffer for 3 times. The GST-HDAC1 protein or GST-HDAC8 protein was eluted by elution buffer containing 50 mM Tris, pH8.0, 150 mM NaCl, 1% Triton X-100 and 10 mM or 20 mM reduced Glutathione. The purified GST-HDAC1 protein or purified GST-HDAC8 protein was dialyzed with HDAC storage buffer containing 10 mM Tris, pH7.5, 100 mM NaCl and 3 mM MgCl2. 20% Glycerol was added to purified GST-HDAC1 protein or purified GST-HDAC8 before storage at −80° C.
The assay has been carried out in 96 well format and the BIOMOL fluorescent-based HDAC activity assay has been applied. The reaction composed of assay buffer, containing 25 mM Tris pH 7.5, 137 mM NaCl, 2.7 mM KCl, 1 mM MgCl2, 1 mg/ml BSA, tested compounds, 500 nM HDAC8 enzyme or 600 nM HDAC1 enzyme, 200 μM Flur de lys p53 peptide substrate for HDAC8 enzyme or 500 μM Flur de lys generic substrate for HDAC1 enzyme and subsequently was incubated at room temperature for 2 h. Flur de lys Developer was added and the reaction was incubated for 10 min. Briefly, deacetylation of the substrate sensitizes it to the developer, which then generates a fluorophore. The fluorophore is excited with 360 nm light and the emitted light (460 nm) is detected on a fluorometric plate reader (Tecan Ultra Microplate detection system, Tecan Group Ltd.).
(§3) The analytical software, Prism 3.0® (GraphPad Software Inc) has been used to generate IC50 from a series of data.

[2] = test system: Ramos Burkitt-lymphoma cells; assay: Apoptosis assay (Annexin V / PI staining, FACS); type: cell-based; conditions: 48 hr after treatment with 10 μM
Excerpt: In various therapies such as for proliferative disorders like cancer, the selective induction of apoptosis in proliferating cells such as tumor cells is one of the desirable approaches, and can be mediated by treatment with various anti-proliferative compounds [Blagosklonny M V, Oncogene, 23(16): 2967 (2004); Kaufmann and Earnshaw, Exp Cell Res. 256(1): 42-9 (2000)]. Programmed cell death or apoptosis is the cellular response to stress factors such as DNA damage introduced during conventional anti-cancer treatment. The concerted sequence of events during apoptosis, clearly differentiate this pathway from a non-coordinated form of cell death called necrosis. During the course of apoptosis, characteristic phenotypical cellular changes occur, which include the condensation of chromatin, the shrinkage of cells and finally the fragmentation of chromosomal DNA. One of the very early changes caused by apoptotic events occurs in the phospholipids bilayer of the plasma membrane. The phospholipid phosphatidylserine is translocated from the inner to the outer side of the plasma-membrane and, as a result, is exposed to the extracellular space. One way of detecting early apoptotic cells is to determine the amount of phosphatidyl-serine at the extracellular side of the plasma-membrane which is accomplished by the standard flow cytometric method of Annexin V staining. […]

[3] = biological target: T2, HDAC8 enzyme (recombinant GST-HDAC8) (Homo sapiens, UniProt Q9BY41); assay: In vitro HDAC assay for determination of IC50 values (BIOMOL fluorescent-based), HDAC8; type: biochemical; conditions: 500 nM HDAC8 enzyme, 200 μM Flur de lys p53 peptide substrate, 2 h room temperature
T2 construct: Amplification of human HDAC1 and HDAC8 coding region from this cDNA library; made in house; host or cells: SF9 insect cells (baculovirus, pFASTBAC vector)
T2 sequence (Q9BY41 1-377): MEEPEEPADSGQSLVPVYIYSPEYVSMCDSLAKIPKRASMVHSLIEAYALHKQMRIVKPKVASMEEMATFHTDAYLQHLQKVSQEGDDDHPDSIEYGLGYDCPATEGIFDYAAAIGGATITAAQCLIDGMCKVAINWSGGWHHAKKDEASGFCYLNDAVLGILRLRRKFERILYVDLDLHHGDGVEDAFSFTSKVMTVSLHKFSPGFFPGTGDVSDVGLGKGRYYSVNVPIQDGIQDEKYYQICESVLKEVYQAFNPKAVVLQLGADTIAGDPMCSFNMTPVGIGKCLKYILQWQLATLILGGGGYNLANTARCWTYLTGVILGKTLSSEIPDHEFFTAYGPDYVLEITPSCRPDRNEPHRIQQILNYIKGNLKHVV
Protocol: as §1, with “The pDEST20-HDAC1 and pFASTBAC-HTGST-HDAC8 constructs were confirmed by DNA sequencing.” left out, “Ltd).” for “Ltd). Baculovirus titer was determined by plaque assay to be about 10^8 PFU/ml.”
as §2
The assay has been carried out in 96 well format and the BIOMOL fluorescent-based HDAC activity assay has been applied. […] Flur de lys Developer was added and the reaction was incubated for 10 min. Briefly, deacetylation of the substrate sensitizes it to the developer, which then generates a fluorophore. The fluorophore is excited with 360 nm light and the emitted light (460 nm) is detected on a fluorometric plate reader (Tecan Ultra Microplate detection system, Tecan Group Ltd.).
as §3

[4] = test system: acetylated histone H2A in Colo205 cells; assay: Histone acetylation assay (western blot), histone H2A; type: cell-based, human; parameters: key: “Active” means accumulation of acetylated histone was observed when compared with control (without compound); conditions: Colo205 cells, 0.1, 1, 5 and 10 μM, 24 h
Protocol: (§4) A hallmark of histone deacetylase (HDAC) inhibition is the increase in the acetylation level of histones. Histone acetylation, including H3, H4, H2A and H2B can be detected by immuno-blotting (western-blot). Colo205 cells, approximately 1.5×10^6 cells/10 cm dish, were seeded in the previously described medium, cultivated for 24 h and subsequently treated with HDAC inhibitory agents at 0.1, 1, 5 and 10 μM final concentration. After 24 h, cells were harvested and lysed according to the instruction from Sigma Mammalian Cell Lysis Kit. The protein concentration was quantified using BCA method (Sigma Pte Ltd). The protein lysate was separated using 4-12% bis-tris SDS-PAGE gel (Invitrogen Pte Ltd) and was transferred onto PVDF membrane (BioRad Pte Ltd). The membrane was probed separately using primary antibody specific for acetylated H3, acetylated H4 or acetylated H2A (Upstate Pte Ltd). The detection antibody, goat anti rabbit antibody conjugated with Horse radish peroxidase (HRP) was used according to the manufacturer instruction (Pierce Pte Ltd). After removing the detection antibody from the membrane, an enhanced chemiluminescent substrate for detection of HRP (Pierce Pte Ltd) was added onto the membrane. […] The density of each band observed on the developed film could be analysed using UVP Bioimaging software (UVP, Inc, Upland, Calif.). […]

[5] = test system: acetylated histone H2B in Colo205 cells; assay: Histone acetylation assay (western blot), histone H2B; type: cell-based, human; parameters: key: “Active” means accumulation of acetylated histone was observed when compared with control (without compound); conditions: Colo205 cells, 0.1, 1, 5 and 10 μM, 24 h
Protocol: as §4

[6] = test system: Colo205 human colon cancer cell line; assay: Cell-based proliferation assay for determination of GI50 values, Colo205; conditions: COLO 205, Colo205 cells, 96 h treatment, cyquant assay, read-out: Colo 205 Gl50
Protocol: (§5) Human colon cancer cell lines (Colo205) and human breast cancer cell lines (MDA-MB435 and MDA-MB231) were obtained from ATCC. Colo205 cells were cultivated in RPMI 1640 containing 2 mM L-Glutamine, 5% FBS, 1.0 mM Na Pyruvate. MDA-MB231 cells were cultivated in RPMI 1640 containing 2 mM L-glutamine, 5% FBS. MDA-MB435 cells were cultivated in DMEM containing 2 mM L-Glutamine, 5% FBS. Colo205 cells were seeded in 96-wells plate at 5000 cells per well respectively. MDA-MB435 and MDA-MB231 cells were seeded in 96-wells plate at 6000 cells per well. The plates were incubated at 37° C., 5% CO2, for 24 h. Cells were treated with compounds at various concentrations for 96 h. Cell growth was then monitored using cyquant cell proliferation assay (Invitrogen Pte Ltd). Dose response curves were plotted to determine GI50 values for the compounds using XL-fit (ID Business Solution, Emeryville, Calif.).

[7] = test system: acetylated histone H3 in Colo205 cells; assay: Histone acetylation assay (western blot), histone H3; type: cell-based, human; parameters: key: “Active” means accumulation of acetylated histone was observed when compared with control (without compound); conditions: Colo205 cells, 0.1, 1, 5 and 10 μM, 24 h
Protocol: (§6) A hallmark of histone deacetylase (HDAC) inhibition is the increase in the acetylation level of histones. Histone acetylation, including H3, H4, H2A and H2B can be detected by immuno-blotting (western-blot). Colo205 cells, approximately 1.5×10^6 cells/10 cm dish, were seeded in the previously described medium, cultivated for 24 h and subsequently treated with HDAC inhibitory agents at 0.1, 1, 5 and 10 μM final concentration. After 24 h, cells were harvested and lysed according to the instruction from Sigma Mammalian Cell Lysis Kit. The protein concentration was quantified using BCA method (Sigma Pte Ltd). The protein lysate was separated using 4-12% bis-tris SDS-PAGE gel (Invitrogen Pte Ltd) and was transferred onto PVDF membrane (BioRad Pte Ltd). The membrane was probed separately using primary antibody specific for acetylated H3, acetylated H4 or acetylated H2A (Upstate Pte Ltd). The detection antibody, goat anti rabbit antibody conjugated with Horse radish peroxidase (HRP) was used according to the manufacturer instruction (Pierce Pte Ltd). After removing the detection antibody from the membrane, an enhanced chemiluminescent substrate for detection of HRP (Pierce Pte Ltd) was added onto the membrane. After removing the substrate, the membrane was exposed to an X-ray film (Kodak) for 1 sec-20 mins. The X-ray film was developed using the X-ray film processor. The density of each band observed on the developed film could be analysed using UVP Bioimaging software (UVP, Inc, Upland, Calif.). The values were then normalized against the density of actin in the corresponding samples to obtain the expression of the protein.

[8] = test system: MDA-MB435 human breast cancer cell line; assay: Cell-based proliferation assay for determination of GI50 values, MDA-MB435; conditions: MDA-MB435 cells, 96 h treatment, cyquant assay
Protocol: as §5

[9] = test system: acetylated histone H4 in Colo205 cells; assay: Histone acetylation assay (western blot), histone H4; type: cell-based, human; parameters: key: “Active” means accumulation of acetylated histone was observed when compared with control (without compound); conditions: Colo205 cells, 0.1, 1, 5 and 10 μM, 24 h
Protocol: as §6

[10] = test system: MDA-MB231 human breast cancer cell line; assay: Cell-based proliferation assay for determination of GI50 values, MDA-MB231; conditions: MDA-MB231 cells, 96 h treatment, cyquant assay
Protocol: as §5

T1 sequence (Q13547 whole entry): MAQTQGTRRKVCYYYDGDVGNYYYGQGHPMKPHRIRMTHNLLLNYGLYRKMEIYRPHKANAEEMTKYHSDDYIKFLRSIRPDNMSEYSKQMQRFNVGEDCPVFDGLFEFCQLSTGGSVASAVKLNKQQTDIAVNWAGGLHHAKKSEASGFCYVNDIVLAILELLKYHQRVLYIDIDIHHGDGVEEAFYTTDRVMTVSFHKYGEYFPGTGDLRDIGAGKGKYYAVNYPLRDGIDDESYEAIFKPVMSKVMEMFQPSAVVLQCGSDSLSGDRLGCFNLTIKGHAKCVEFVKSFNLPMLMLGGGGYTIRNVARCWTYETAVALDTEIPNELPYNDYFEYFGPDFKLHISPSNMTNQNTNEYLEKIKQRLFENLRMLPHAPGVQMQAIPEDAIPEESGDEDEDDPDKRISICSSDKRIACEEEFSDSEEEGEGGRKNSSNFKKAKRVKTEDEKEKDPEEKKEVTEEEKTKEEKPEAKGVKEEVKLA

Compound | IC50 [1] [nM] | percentage of late apoptotic cells [2] [%] | IC50 [3] [nM] | Hisotne 2A acetylation [4] | Histone 2B acetylation [5] | GI50 [6] [nM] | Histone 3 acetylation [7] | MDA-MB435 Gl50 [8] [µM] | Histone 4 acetylation [9] | MDA-MB231 Gl50 [10] [µM]
Cc1ccc(S(=O)(=O)NC(=O)Nc2cccc(/C=C/C(=O)NO)c2)cc1 [Example 3, N-Hydroxy-3-{3-[3-(4-methylbenzenesulfonyl)ureido]-phenyl}-acrylamide] | 1540 | 84 | 22 | – | – | – | – | – | – | –
O=C(/C=C/c1ccc(CN(CCc2c[nH]c3ccccc23)C(=O)NC(=O)c2ccccc2)cc1)NO [Example 11, 3-(4-{3-Benzoyl-1-[2-(1H-indol-3-yl)-ethyl]-ureidomethyl}phenyl)-N-hydroxy-acrylamide] | 4 | – | 210 | Active | Active | 260 | Active | 0.62 | Active | 0.26

Source: patent US20080070954A1, “Acylurea Connected And Sulfonylurea Connected Hydroxamates” (S*BIO PTE LTD., priority 2003, published 2008)
